Patent EP0545911B1, “Lanthionine-containing bacteriocin compositions for use as bactericides” (APPLIED MICROBIOLOGY, INC., priority 1988, dated 1996)

Legend:
Type in all cases: cell-based
Streptococcus agalactiae = test: Bactericidal activity (percent bacterial survival, CFU count) in milk at 37°C; conditions: for % survival at 2hr: Monolaurin 0 %
Procedure: (§1) All tests in the following examples were performed at 37°C. The efficacy of the enhanced broad range bactericides was determined by assaying bactericidal activity as measured by the percent bacterial survival after treatment with the bactericide. Generally, after incubation of a 10^7 cell per ml suspension of target species with the novel bactericide for specified lengths of time, bacteria were collected by centrifugation for 2 minutes. The bacterial pellet was washed free of the bactericide with a rescue buffer, termed herein Phage buffer (50mM Tris-HCl buffer pH 7.8, 1mM MgSO4, 4mM CaCl2, 0.1 M NaCl, and 0.1% gelatin), resuspended and serially diluted into Phage buffer, and […] of the suspended bacteria were spread on nutrient agar plates. Surviving bacteria were determined by scoring colony forming units (CFU) after incubation for 24-48 hours at 37°C. An effective bactericide according to this invention is one which allows less than 0.1% of the initial viable count of the bacteria to survive.
Thus, when the application of nisin is limited by its available activity, a bactericide comprising nisin with a surfactant can be expected to be more useful.

Listeria monocytogenes [1] = conditions: monooleate by itself; milk
Procedure: as §1

Listeria monocytogenes [2] = test: Bactericidal activity (percent bacterial survival, CFU count) in milk at 37°C
Procedure: as §1

## CCCCCCCCCCCC(=O)OCC(O)CO (stereo not drawn) [Monolaurin, monolaurin]
Streptococcus agalactiae; Streptococcus agalactiae, 2 h, Nisin 0 µg/ml, Monolaurin 0.01 %, 37°C, initial viable counts 6.0 x 10^7 cfu/ml
  viability at 0.01 %: 100%
Streptococcus agalactiae; Streptococcus agalactiae, 2 h, Nisin 0 µg/ml, Monolaurin 0.1 %, 37°C, initial viable counts 6.0 x 10^7 cfu/ml
  viability at 0.1 %: 4.5%
Streptococcus agalactiae; monolaurin alone at concentrations up to 0.1%
  bactericidal activity towards Streptococcus agalactiae (in words): little significant bactericidal activity

## glyceride monooleate
Listeria monocytogenes [1]
  bactericidal activity towards L. monocytogenes (in words): no bactericidal activity

## Nisin (ITSISLCTPGCKTGALMGCNMKTATCHCSIHVSK; not fully specified; Lantibiotic nisin-A; UniProt P13068 24-57, looked up) [polypeptide with antimicrobial properties produced by strains of Streptococcus lactis; lanthionine-containing peptide bacteriocin, known food preservative]
Listeria monocytogenes [2]; Nisin 100 µg/ml, Monooleate 0 %, milk, 37°C, initial viable count 5.0 x 10^7 cfu/ml
  % survival at 2hr: 0.56%
Listeria monocytogenes [2]; nisin alone, complex medium like milk
  available nisin activity towards L. monocytogenes (in words): restricted
Streptococcus agalactiae; Nisin 0.02 µg/ml, 37°C, initial viable counts 6.0 x 10^7 cfu/ml
  % survival at 2hr: 100%
Streptococcus agalactiae; Nisin 0.2 µg/ml, 37°C, initial viable counts 6.0 x 10^7 cfu/ml
  % survival at 2hr: 2.2%
Streptococcus agalactiae; nisin alone at concentrations up to 0.2 µg.ml
  bactericidal activity in milk (in words): does not exhibit significant bactericidal activity
